According to ChEMBL document CHEMBL1121791, “Computer-assisted structure-activity studies of chemical carcinogens. Aromatic amines” (J Med Chem, 1981):
The source made the active and inactive calls. The calls are words filed in the database; no cut-off is given here.

Columns and labels:
Type in all cases: functional, organism-based
Rattus norvegicus [1] = experiment: Compound was tested for carcinogenic activity on ear duct after oral administration of the compound; + denotes carcinogenic activity.
Rattus norvegicus [2] = experiment: Carcinogenic activity on breast after oral administration of the compound
Rattus norvegicus [3] = experiment: Carcinogenic activity on mixed data after oral administration
Rattus norvegicus [4] = experiment: Carcinogenic activity on all sites after oral administration
Rattus norvegicus [5] = experiment: Carcinogenic activity on other sites after oral administration
Rattus norvegicus [6] = experiment: Carcinogenic activity on all sites after intraperitoneal administration
Rattus norvegicus [7] = experiment: Carcinogenic activity on breast after intraperitoneal administration
Rattus norvegicus [8] = experiment: Compound was tested for carcinogenic activity on other sites after intraperitoneal administration of the compound; + denotes carcinogenic activity.
Rattus norvegicus [9] = experiment: Compound was tested for carcinogenic activity on other sites after various routes administration of the compound; + denotes carcinogenic activity.
Rattus norvegicus [10] = experiment: Compound was tested for carcinogenic activity on all sites after various routes administration of the compound; + denotes carcinogenic activity.
Rattus norvegicus [11] = experiment: Compound was tested for carcinogenic activity on breast after various routes administration of the compound; + denotes carcinogenic activity.
Rattus norvegicus [12] = experiment: Compound was tested for carcinogenic activity on ear duct after various routes administration of the compound; + denotes carcinogenic activity.
Rattus norvegicus [13] = experiment: Compound was tested for carcinogenic activity on liver after various routes administration of the compound; + denotes carcinogenic activity.
Rattus norvegicus [14] = experiment: Compound was tested for carcinogenic activity on mixed data after various routes administration of the compound; + denotes carcinogenic activity
Rattus norvegicus [15] = experiment: Compound was tested for carcinogenic activity on mixed data after oral administration of the compound; + denotes four or five active sites.
Rattus norvegicus [16] = experiment: Carcinogenic activity on ear duct after oral administration
Rattus norvegicus [17] = experiment: Compound was tested for carcinogenic activity on breast after topical administration of the compound; + denotes carcinogenic activity.
Rattus norvegicus [18] = experiment: Compound was tested for carcinogenic activity on other sites after topical administration of the compound; + denotes carcinogenic activity.
Rattus norvegicus [19] = experiment: Compound was tested for carcinogenic activity on all sites after topical administration of the compound; + denotes carcinogenic activity.
Rattus norvegicus [20] = experiment: Compound was tested for carcinogenic activity on mixed data after various routes administration of the compound; + denotes carcinogenic activity.
Rattus norvegicus [21] = experiment: Compound was tested for carcinogenic various routes subcutaneous administration of the compound; + denotes carcinogenic activity.
Rattus norvegicus [22] = experiment: Tested for carcinogenic activity on breast after oral administration of the compound; - denotes non carcinogenic activity.
Rattus norvegicus [23] = experiment: Carcinogenic activity on ear duct after oral administration of the compound; - denotes non carcinogenic activity.
Rattus norvegicus [24] = experiment: Carcinogenic activity after oral administration
Rattus norvegicus [25] = experiment: Carcinogenic activity on liver after oral administration of the compound
Rattus norvegicus [26] = experiment: Carcinogenic activity on liver after oral administration
Rattus norvegicus [27] = experiment: Compound was tested for carcinogenic activity on all sites after subcutaneous administration of the compound; + denotes carcinogenic activity
Rattus norvegicus [28] = experiment: Compound was tested for carcinogenic activity on other sites after subcutaneous administration of the compound; + denotes carcinogenic activity
Rattus norvegicus [29] = experiment: Compound was tested for carcinogenic activity on ear duct after oral administration of the compound; na denotes not available.
Rattus norvegicus [30] = experiment: Compound was tested for carcinogenic activity on mixed data after various routes administration of the compound; + denotes four or five active sites
Rattus norvegicus [31] = experiment: Carcinogenic activity on all sites after subcutaneous administration
Rattus norvegicus [32] = experiment: Carcinogenic activity on other sites after subcutaneous administration
Rattus norvegicus [33] = experiment: Compound was tested for carcinogenic activity on liver after subcutaneous administration of the compound; + denotes carcinogenic activity
Rattus norvegicus [34] = experiment: Carcinogenic activity on liver after subcutaneous administration
Rattus norvegicus [35] = experiment: Carcinogenic activity on ear duct after subcutaneous administration
Rattus norvegicus [36] = experiment: Compound was tested for carcinogenic activity on mixed data after subcutaneous administration of the compound; + denotes carcinogenic activity.
Rattus norvegicus [37] = experiment: Compound was tested for carcinogenic activity on ear duct after oral administration of the compound; na denotes data not available.
Rattus norvegicus [38] = experiment: Compound was tested for carcinogenic activity on liver after oral administration of the compound; na denotes data not available.
Rattus norvegicus [39] = experiment: Compound was tested for carcinogenic activity on all sites after subcutaneous administration of the compound; + denotes carcinogenic activity.

For `CN(C)c1ccc(-c2ccccc2)cc1`, the Activity (Rattus norvegicus [1]) was “Carcinogenic activity”, the Activity (Rattus norvegicus [2]) was “Carcinogenic activity” and the Activity (Rattus norvegicus [3]) was “Carcinogenic activity”. For the same compound, the Activity (Rattus norvegicus [4]) was “Carcinogenic activity” and the Activity (Rattus norvegicus [5]) was “Carcinogenic activity”.

With `O=S(=O)(c1ccccc1)N(O)c1ccc2c(c1)Cc1ccccc1-2` the Activity (Rattus norvegicus [6]) was “Carcinogenic activity”, the Activity (Rattus norvegicus [7]) was “Carcinogenic activity” and the Activity (Rattus norvegicus [8]) was “Carcinogenic activity”.

With `O=C(c1ccccc1)N(O)c1ccc2c(c1)Cc1ccccc1-2` the Activity (Rattus norvegicus [6]) was “Carcinogenic activity”, the Activity (Rattus norvegicus [7]) was “Carcinogenic activity” and the Activity (Rattus norvegicus [8]) was “Carcinogenic activity”.

With `ONc1ccc2ccccc2c1` the Activity (Rattus norvegicus [6]) was “Carcinogenic activity” and the Activity (Rattus norvegicus [8]) was “Carcinogenic activity”.

`CC(=O)N(O)c1ccc2c(c1)Cc1ccccc1-2` was tested, and the Activity (Rattus norvegicus [9]) was “Carcinogenic activity”, the Activity (Rattus norvegicus [10]) was “Carcinogenic activity” and the Activity (Rattus norvegicus [11]) was “Carcinogenic activity”. The Activity (Rattus norvegicus [12]) was “Carcinogenic activity”, the Activity (Rattus norvegicus [13]) was “Carcinogenic activity” and the Activity (Rattus norvegicus [14]) was “Carcinogenic activity”.

For `CC(=O)Nc1ccc(-c2ccccc2)cc1`, the Activity (Rattus norvegicus [2]) was “Carcinogenic activity”, the Activity (Rattus norvegicus [15]) was “Carcinogenic activity” and the Activity (Rattus norvegicus [16]) was “Carcinogenic activity”. The Activity (Rattus norvegicus [4]) was “Carcinogenic activity” and the Activity (Rattus norvegicus [5]) was “Carcinogenic activity”.

In the case of `Nc1ccc2cc3ccccc3cc2c1`, the Activity (Rattus norvegicus [17]) is reported as “Carcinogenic activity”, the Activity (Rattus norvegicus [18]) is reported as “Carcinogenic activity” and the Activity (Rattus norvegicus [19]) is reported as “Carcinogenic activity”.

For `Nc1ccc2c(c1)Cc1ccccc1-2`, the Activity (Rattus norvegicus [9]) was “Carcinogenic activity”, the Activity (Rattus norvegicus [20]) was “Carcinogenic activity” and the Activity (Rattus norvegicus [21]) was “Carcinogenic activity”. For the same compound, the Activity (Rattus norvegicus [11]) was “Carcinogenic activity”, the Activity (Rattus norvegicus [12]) was “Carcinogenic activity” and the Activity (Rattus norvegicus [13]) was “Carcinogenic activity”.

For `CC(=O)Nc1ccc2[nH]c3ccccc3c2c1`, the Activity (Rattus norvegicus [22]) was “inactive”, the Activity (Rattus norvegicus [23]) was “inactive” and the Activity (Rattus norvegicus [24]) was “inactive”. The Activity (Rattus norvegicus [25]) was “inactive”, the Activity (Rattus norvegicus [3]) was “inactive” and the Activity (Rattus norvegicus [4]) was “inactive”.

For `Cc1ccc(C(=O)Nc2ccc(S(=O)(=O)O)c3cc(S(=O)(=O)O)cc(S(=O)(=O)O)c23)cc1NC(=O)c1cccc(NC(=O)Nc2cccc(C(=O)Nc3cc(C(=O)Nc4ccc(S(=O)(=O)O)c5cc(S(=O)(=O)O)cc(S(=O)(=O)O)c45)ccc3C)c2)c1`, the Activity (Rattus norvegicus [22]) was “inactive”, the Activity (Rattus norvegicus [23]) was “inactive” and the Activity (Rattus norvegicus [4]) was “Active”. The Activity (Rattus norvegicus [26]) was “Active” and the Activity (Rattus norvegicus [5]) was “Active”.

With `Cc1cccc(-c2ccc(N)cc2C)c1` the Activity (Rattus norvegicus [27]) was “Carcinogenic activity” and the Activity (Rattus norvegicus [28]) was “Carcinogenic activity”.

For `COc1c(N)ccc2c1Cc1ccccc1-2`, the Activity (Rattus norvegicus [4]) was “Carcinogenic activity”, the Activity (Rattus norvegicus [26]) was “Carcinogenic activity” and the Activity (Rattus norvegicus [5]) was “Carcinogenic activity”. For the same compound, the Activity (Rattus norvegicus [29]) was “inactive”.

`CC(=O)Nc1ccc2c(c1)Cc1ccccc1-2` was tested, and the Activity (Rattus norvegicus [9]) was “Carcinogenic activity”, the Activity (Rattus norvegicus [10]) was “Carcinogenic activity” and the Activity (Rattus norvegicus [11]) was “Carcinogenic activity”. The Activity (Rattus norvegicus [12]) was “Carcinogenic activity”, the Activity (Rattus norvegicus [30]) was “Carcinogenic activity” and the Activity (Rattus norvegicus [13]) was “Carcinogenic activity”.

`Nc1ccc(-c2ccc(F)cc2)cc1` was tested, and the Activity (Rattus norvegicus [31]) was “Carcinogenic activity”, the Activity (Rattus norvegicus [32]) was “Carcinogenic activity” and the Activity (Rattus norvegicus [33]) was “Carcinogenic activity”.

With `Nc1ccc2ccccc2c1` the Activity (Rattus norvegicus [22]) was “inactive”, the Activity (Rattus norvegicus [23]) was “inactive” and the Activity (Rattus norvegicus [24]) was “inactive”. The Activity (Rattus norvegicus [25]) was “inactive”, the Activity (Rattus norvegicus [3]) was “inactive” and the Activity (Rattus norvegicus [4]) was “inactive”.

For `Nc1ccc(-c2ccc(N)cc2)cc1`, the Activity (Rattus norvegicus [31]) was “Carcinogenic activity”, the Activity (Rattus norvegicus [32]) was “Carcinogenic activity” and the Activity (Rattus norvegicus [34]) was “Carcinogenic activity”. For the same compound, the Activity (Rattus norvegicus [35]) was “Carcinogenic activity” and the Activity (Rattus norvegicus [36]) was “Carcinogenic activity”.

With `COc1cccc(-c2cccc(OC)c2N)c1N` the Activity (Rattus norvegicus [37]) was “inactive”.

In the case of `CC(=O)Nc1ccc2c(c1)C(=O)c1ccccc1-2`, the Activity (Rattus norvegicus [37]) is reported as “inactive”, the Activity (Rattus norvegicus [2]) is reported as “Carcinogenic activity” and the Activity (Rattus norvegicus [4]) is reported as “Carcinogenic activity”. For the same compound, the Activity (Rattus norvegicus [26]) was “Carcinogenic activity”.

With `CC(=O)Nc1ccc(-c2ccc(NC(C)=O)cc2C)cc1` the Activity (Rattus norvegicus [2]) was “Carcinogenic activity”, the Activity (Rattus norvegicus [15]) was “Carcinogenic activity” and the Activity (Rattus norvegicus [16]) was “Carcinogenic activity”. For the same compound, the Activity (Rattus norvegicus [4]) was “Carcinogenic activity” and the Activity (Rattus norvegicus [5]) was “Carcinogenic activity”.

`Nc1ccc(Cc2ccc(N)cc2)cc1` was tested, and the Activity (Rattus norvegicus [38]) was “inactive”.

`CCN(CC)c1ccc(/C=C/c2ccccc2)cc1` was tested, and the Activity (Rattus norvegicus [39]) was “Carcinogenic activity” and the Activity (Rattus norvegicus [35]) was “Carcinogenic activity”.
